Source: patent US7101878B1 (Agouron Pharmaceuticals, Inc., priority 1998, dated 2006)
Read-outs that look alike come from different tables or passages of the source. Where a SMILES comes first, the peptide text is derived from it. [ ]: non-standard residue; d: D form. The star is where a group is joined. dPhe(4-Cl) = N[C@H](Cc1ccc(Cl)cc1)C(=O)O; d2Nal = N[C@H](Cc1ccc2ccccc2c1)C(=O)O; Lys(iPr) = CC(C)NCCCC[C@H](N)C(=O)O; d3Pal = N[C@H](Cc1cccnc1)C(=O)O; Nicotinoyl = O=C(c1cccnc1)*

How the values were obtained:
[1] = biological target: T1, human GnRH receptor (Homo sapiens, UniProt P30968); experiment: Radioligand binding, 125I-GnRH-A displacement, membranes of HEK 293 cells with human GnRH receptor
T1 construct: expressed in transfected cells; host or cells: HEK 293 (hGnRH-R/293, from Dr. Stuart Sealfon)
T1 sequence (P30968 1-328): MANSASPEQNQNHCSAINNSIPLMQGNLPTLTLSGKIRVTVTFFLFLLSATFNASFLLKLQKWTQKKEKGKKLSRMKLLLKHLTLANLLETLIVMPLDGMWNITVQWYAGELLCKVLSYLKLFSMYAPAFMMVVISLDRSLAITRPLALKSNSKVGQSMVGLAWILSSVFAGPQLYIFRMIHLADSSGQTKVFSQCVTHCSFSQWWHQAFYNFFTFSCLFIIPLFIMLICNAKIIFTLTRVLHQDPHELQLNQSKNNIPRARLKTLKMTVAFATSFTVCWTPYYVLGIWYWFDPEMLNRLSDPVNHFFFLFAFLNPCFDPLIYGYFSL
In short: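 After filtration and PBS washes, bound radioactivity was counted by scintillation and IC50 derived. Identical conditions applied for non-human receptors.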

[2] = biological target: T2, mouse GnRH receptor (Mus musculus, UniProt Q01776); experiment: Radioligand binding, 125I-GnRH-A, 293 cells expressing mouse GnRH receptors
T2 construct: expressed in transfected cells; host or cells: 293 cells
T2 sequence (Q01776 1-327): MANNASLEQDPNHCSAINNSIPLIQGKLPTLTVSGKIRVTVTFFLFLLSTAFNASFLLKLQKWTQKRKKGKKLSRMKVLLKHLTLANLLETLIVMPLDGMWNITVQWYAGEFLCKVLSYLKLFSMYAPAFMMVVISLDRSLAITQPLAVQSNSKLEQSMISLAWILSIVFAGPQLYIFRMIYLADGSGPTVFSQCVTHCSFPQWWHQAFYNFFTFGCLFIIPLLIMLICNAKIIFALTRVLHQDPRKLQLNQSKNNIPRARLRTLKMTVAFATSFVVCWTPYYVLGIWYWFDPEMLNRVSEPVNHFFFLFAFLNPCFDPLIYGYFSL
In short: (§1)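 Bound label captured on 0.1% polyethyleneimine-treated GF/C filters, washed three times with PBS, counted. IC50 derived; identical set-up for every species.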

[3] = biological target: T3, rat GnRH receptor (Rattus norvegicus, UniProt P30969); experiment: Radioligand binding, 125I-GnRH-A, rat pituitary membranes; design: membranes were prepared from rat pituitary; from tissue; host or cells: rat pituitary
T3 sequence (P30969 1-327): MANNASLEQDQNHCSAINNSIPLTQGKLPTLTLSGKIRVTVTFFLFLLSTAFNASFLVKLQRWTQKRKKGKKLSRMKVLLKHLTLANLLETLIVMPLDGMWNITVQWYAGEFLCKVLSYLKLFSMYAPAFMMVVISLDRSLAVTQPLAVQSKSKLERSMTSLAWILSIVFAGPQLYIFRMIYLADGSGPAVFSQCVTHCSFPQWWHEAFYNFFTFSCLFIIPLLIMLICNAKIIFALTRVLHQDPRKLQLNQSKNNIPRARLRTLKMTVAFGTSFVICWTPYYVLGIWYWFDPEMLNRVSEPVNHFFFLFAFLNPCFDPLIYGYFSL
In short: as §1

[4] = biological target: T4, ILRA (CXCR-1) (Homo sapiens, UniProt P25024); experiment: Selectivity: ILRA (CXCR-1) / IL8
T4 sequence (P25024 1-350): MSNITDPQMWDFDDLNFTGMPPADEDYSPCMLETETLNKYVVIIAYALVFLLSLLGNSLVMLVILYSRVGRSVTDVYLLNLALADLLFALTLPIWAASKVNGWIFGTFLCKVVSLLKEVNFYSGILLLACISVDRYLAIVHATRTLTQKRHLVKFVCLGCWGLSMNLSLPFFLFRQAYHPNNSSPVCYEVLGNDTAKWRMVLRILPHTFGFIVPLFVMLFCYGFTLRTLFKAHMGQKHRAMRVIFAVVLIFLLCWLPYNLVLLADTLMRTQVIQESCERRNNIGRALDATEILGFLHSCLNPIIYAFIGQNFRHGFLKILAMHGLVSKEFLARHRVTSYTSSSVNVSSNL

[5] = Pharmacokinetic studies / bioavailability in rats; type: in vivo, rat; details: for Cmax / Tmax: po
[6] = means ± SE of at least three experiments performed in duplicate, read-out: Human IC50
[7] = means ± SE of at least three experiments performed in duplicate, read-out: Mouse IC50
[8] = means ± SE of at least three experiments performed in duplicate, read-out: Rat IC50
[9] = second value marked * (mostly in parentheses), asterisk not explained, read-out: hGnRH IC50, value marked *
[10] = male, rat, plasma, iv, 10 mg/kg, rat male
[11] = male, rat, plasma, 10 mg/kg, rat male, p.o. 10 mg/kg, vehicle per footnote
[12] = female, rat, plasma, 20 mg/kg, rat female, p.o. 20 mg/kg, 10 mg/ml solution in 10% DMSO 10% cremophor 80% saline
[13] = female, rat, plasma, rat female
[14] = male, rat, plasma, 20 mg/kg, castrated male rats, p.o. 20 mg/kg, 10 mg/ml solution in 10% DMSO 10% cremophor 80% saline
[15] = male, rat, plasma, 20 mg/kg, rat male, p.o. 20 mg/kg, 40 mg/ml in PEG400
[16] = male, rat, plasma, 20 mg/kg, rat male, p.o. 20 mg/kg, vehicle per footnote (DMSO/cremophor/saline)
[17] = plasma, ip, rat, i.p. 20 mg/kg, read-out: Bioavailability after i.p. dosing
[18] = rat female, p.o. 20 mg/kg, 10 mg/ml solution in 10% DMSO 10% cremophor 80% saline
[19] = rat male, p.o. 20 mg/kg, vehicle per footnote (DMSO/cremophor/saline)
[20] = female, rat, plasma, 10 mg/kg, rat female, p.o. 10 mg/kg, 5 mg/ml solution in 10% DMSO 10% cremophor 80% saline
[21] = rat female, 5 mg/ml solution in 10% DMSO 10% cremophor 80% saline

| Structure (SMILES) | IC50 [1, 6] [nM] | IC50 [2, 7] [nM] | IC50 [3, 8] [nM] | IC50 ([1]; read-out: hGnRH IC50) [nM] | IC50 ([2]; read-out: mGnRH IC50) [nM] | IC50 ([3]; read-out: rGnRH IC50) [nM] | half-life [5, 10] [h] | half-life [5, 13] [h] | Fp.o. [5, 19] | also measured |
| --- | --- | --- | --- | --- | --- | --- | --- | --- | --- | --- |
| CC(=O)N[C@H](Cc1ccc2ccccc2c1)C(=O)N[C@H](Cc1ccc(Cl)cc1)C(=O)N[C@H](Cc1cccnc1)C(=O)N[C@@H](CO)C(=O)N[C@@H](CCCCNC(=O)c1cccnc1)C(=O)N[C@H](CCCCNC(=O)c1cccnc1)C(=O)N[C@@H](CC(C)C)C(=O)N[C@@H](CCCCNC(C)C)C(=O)N1CCC[C@H]1C(=O)N[C@H](C)C(N)=O [Antide, reference compound] (Ac-[d2Nal][dPhe(4-Cl)][d3Pal]SK(Nicotinoyl)[dK](Nicotinoyl)L[Lys(iPr)]P[dA]-NH2) | 0.67 ± 0.09 | 0.25 ± 0.05 | 0.19 ± 0.04 | – | – | – | – | – | – | – |
| Cc1cc2c(cc1Cc1ccc(C(=O)NC[C@H]3CC[C@H](CNC(=N)N)CC3)o1)C(C)(C)CCC2(C)C [Compound 10] | 130 ± 24 | 1400 ± 440 | 390 ± 10 | 130 | 1400 | 390 | – | – | – | IC50 [1, 9]: 20 nM; IC50 [4]: 6400 nM |
| Cc1cc2c(cc1Cc1ccc(C(=O)NCC3CCCC(CNc4nccc(NCC5CCCO5)n4)C3)o1)C(C)(C)CCC2(C)C (centres unmarked) [Compound 11] | 190 ± 40 | 50 ± 10 | 9 ± 0.3 | 190 | 50 | 9 | 3 | – | – | IC50 [1, 9]: 80 nM; Cmax [5, 11]: 150 nM; Tmax [5, 11]: 1.5 to 3.5 h; concentration at 4 h ([5]; rat, plasma, iv, four hours after i.v. injection, 10 mg/kg): 100 to 200 nM; IC50 [4]: > 10000 nM |
| Cc1cc2c(cc1Cc1ccc(C(=O)NC[C@H]3CC[C@H](C(=O)O)CC3)o1)C(C)(C)CCC2(C)C [Compound 12] | 230 ± 37 | 7130 ± 1350 | 3080 ± 630 | 230 | 7130 | 3080 | 0.6 | – | – | IC50 [1, 9]: 210 nM; IC50 [4]: > 10000 nM |
| Cc1cc2c(cc1Cc1ccc(C(=O)NCc3cccc(CNc4nccc(NCC5CCCO5)n4)c3)o1)C(C)(C)CCC2(C)C (centres unmarked) [Compound 70] | – | – | – | 50 | 6 | 6 | 0.967 | – | – | – |
| COc1cc(OC)c(NC(=O)c2ccc(Cc3cc4c(cc3C)C(C)(C)CCC4(C)C)o2)c(OC)c1 [Compound 134] | – | – | – | 6 | 3 | 3 | 1.4 | 1.7 | 8% (20 mg/kg)^5 | Fp.o. ([5]; castrated male rats, p.o. 20 mg/kg, 10 mg/ml solution in 10% DMSO 10% cremophor 80% saline): 23% (20 mg/kg)^1; Cmax [5, 12]: 2310 nM; Tmax [5, 12]: 1 h; half-life ([5]; male, rat, plasma, castrated male rats): 1.7 h; Cmax [5, 14]: 1980 nM; Tmax [5, 14]: 1.5 h; Cmax [5, 15]: 230 nM; Cmax [5, 16]: 610 nM; Tmax [5, 16]: 1 h; bioavailability [5, 17]: 38%; Fp.o. [5, 18]: 24% (20 mg/kg)^1 |
| Cc1cc2c(cc1Cc1ccc(C(=O)NCc3cccc(CNc4ccnc(NC[C@@H]5CCCO5)n4)c3)o1)C(C)(C)CCC2(C)C [Compound 136] | – | – | – | – | 8.6 | 4.7 | 2 | 3.2 | 6% (20 mg/kg)^4 | Cmax [5, 12]: 240 nM; Tmax [5, 12]: 2.5 h; Tmax [5, 15]: 4 h; Tmax ([5]; male, rat, plasma, 20 mg/kg, rat male, p.o. 20 mg/kg, in PG): 3.5 h; Cmax [5, 16]: 240 nM; Tmax [5, 16]: 2 h; bioavailability ([5]; plasma, other: portal vein infusion, rat, portal vein infusion 20 mg/kg, read-out: Portal vein infusion: bioavailable): 36%; Fp.o. [5, 18]: 8% (20 mg/kg)^1 |
| COc1cc(OC)c(NC(=O)c2ccc(Cc3cc4c(cc3OC)C(C)(C)CCC4(C)C)o2)c(OC)c1 [Compound 169] | – | – | – | 12 | 5 | 7 | 1.5 | – | 27% (20 mg/kg)^1 | Cmax [5, 16]: 970 nM; Tmax [5, 16]: 1 h; bioavailability [5, 17]: 70% |
| COc1cc(OC)c(NC(=O)c2ccc(Cc3cc4c(cc3C)C(C)(C)CCC4(C)C)o2)c(OC)c1C#N [Compound 177] | – | – | – | 7.4 | 7.3 | 5.7 | 2.2 | – | 0 (20 mg/kg)^9% | bioavailability [5, 17]: 8% |
| COc1cc(OC)c(NC(=O)c2ccc(Cc3cc4c(cc3C)CCCC4(C)C)o2)c(OC)c1 [Compound 183] | – | – | – | 6.8 | 2.7 | 2.5 | 4.1 | 3.6 | – | Cmax [5, 20]: 510 nM; Tmax [5, 20]: 1 h; Cmax [5, 11]: 350 nM; Tmax [5, 11]: 1 h; Fp.o. [5, 21]: 37% (10 mg/kg)^10; Fp.o. ([5]; rat male, vehicle per footnote): 29% (10 mg/kg)^10 |
| COc1cc(OC)c(NC(=O)c2ccc(Cc3cc(C(C)(C)C)ccc3C)o2)c(OC)c1 [Compound 200] | – | – | – | 42 | 13 | 2.8 | – | 2 | – | Cmax [5, 20]: 960 nM; Tmax [5, 20]: 1.5 h; Fp.o. [5, 21]: 33% (10 mg/kg)^10 |
